Laboratory results: US10058540B2, “2-amino-5,5-difluoro-6-(fluoromethyl)-6-phenyl-3,4,5,6-tetrahydropyridines as BACE1 inhibitors” (H. Lundbeck A/S, priority 2014, dated 2018)

Tests used:
[1] = tested on: Aβ40; experiment: Assessment of Aβ peptide levels in rat brain and plasma following BACE1 inhibition (Aβ40 ELISA); format: in vivo; details: 3 hours post dose, vs vehicle
Protocol: Assessment of Aβ Peptide Levels in Rat Brain and Plasma Following BACE1 Inhibition. Animals.
Young adult Male Sprague Dawley rats of approximately 250 g weight were purchased from Charles River and received 0-30 mg/kg of vehicle (10% HP betaCD+1M MeSO4, pH 2.5) or test compounds (dissolved in vehicle) only by oral gavage (p.o). The compounds are dosed at a volume of […]. Cohorts of 5-10 animals were established for each treatment condition.
At T=180 minutes after initial dosing the animals were stunned and decapitated with a guillotine. Trunk-blood was sampled in EDTA coated tubes after decapitation of the animal. The blood was centrifuged at 2200 G at 4° C. for 15 minutes and the plasma was collected and frozen at −80° C. The blood was aliquoted for Aβ ELISA and DMPK analysis. Immediately following sacrifice, the brain was extracted and split into 2 halves. The right hemibrains were snap frozen on dry ice and stored at −80° C. The left half was dissected; with the front forebrain taken for Aβ ELISA and the remainder used for DMPK analysis. These samples were also snap frozen on dry ice and stored at −80° C. until use for analysis.
The cortex samples were thawed slightly on wet ice before they were homogenized with a small volume dispersing instrument (T10 basic ULTRA-TURRAX®) which was set at speed 5 for approximately 5-7 sec. The tissue was processed in a 10 times volume of the weight, for example 100 mg of tissue was homogenized in 1000 μL of Homogenization buffer. Homogenization buffer: 50 ml Milli Q water+[…]+0.2% Diethylamin (DEA)+1 tablet of Complete Protease inhibitor cocktail+1 nM 4-(2-aminoethyl)benzenesulfonyl fluoride hydrochloride irreversible serine protease inhibitor (AEBSF).
After homogenization 450 μL aliquots of the samples are collected into a 1.5 ml Eppendorf tube and placed on wet ice, 0.5% NP-40 (50 ul) was added to all samples and then they were incubated on ice for 30 min. After which all samples were sonicated using an Ultrasonic homogenizer with 20 kHz homogeneous sound (SONOPLUS HD2070, Bandelin Electronic) 10 pulse set at 12-13% power to extract all the Aβ species. The samples were then centrifuged (Ole Dich 157 MPRF Micro centrifuge) at 20000 G for 20 minutes at 4° C. After centrifugation 285 μL of the supernatant was pipetted into 600 μL microtubes tubes and neutralized with 15 μL of 1M Tris-HCL buffer.
WAKO 294-62501 Human/Rat Abeta amyloid (40) kit was used for all ELISA analyses. 30 μL plasma samples or 30 μL of the cortex supernatants generated as described above were placed in 600 μL microtubes tubes on wet ice. To this 30 μL of 8M Urea (AppliChem A1049, 9025) are added to generate a 2-fold dilution. Both plasma and cortex supernatants are incubated on ice for 30 min. Standard rows were prepared from the standard peptide stock provided in the kit and standard diluent containing 1.6M Urea (200 μL 8M Urea+800 μL of standard diluent) and 0.8M Urea (400 μL 8M Urea+3600 μL Standard diluent). A serial 2-fold dilution of Aβ40 from 100 pmol/ml to 0 pmol/L was prepared for the assay.
After incubation with urea, all samples were further diluted by addition of 5 times standard diluent from the Kit. This was done by adding 240 μL Standard Diluent to 60 μL sample/urea mixture, which was then mixed well. 100 μL of each diluted sample was pipetted into designated wells of the ELISA plate in duplicates. The plate was then covered and incubated overnight at 4° C. The following day, the ELISA kit was brought to room temperature before use. The incubated plate was washed 5 times with the 20× washing solution diluted in Milli Q water. 100 μL HRP-conjugate was applied to each well, and the plate was covered and incubates at 4° C. for 1 hr. The wash was repeated again for 5 times. 100 μL 3,3′,5,5′-Tetramethylbenzidine (TMB) solution was applied to each well and the plate was covered and incubated in the dark at room temperature for 30 minutes. […]

[2] = tested on: P-gp (MDR1); experiment: MDCK-MDR1 assay (permeability / Pgp efflux); format: in vitro ADME; details: dog, Papp BA/Papp AB, Pgp substrate when ≥2
Protocol: The permeability of the test compounds was assessed in MDCK-MDR1 cells that were cultured to confluency (4-6 days) in a 96 transwell plate. Test compounds were diluted with the transport buffer (HBSS+1% BSA) to a concentration of 0.5 μM and applied to the apical or basolateral side of the cell monolayer. Permeation of the test compounds from A to B direction or B to A direction was determined in triplicate over a 60-minute incubation time at 37° C. and 5% CO2 with a relative humidity of 95%. Test compounds were quantified by LC-MS/MS analysis based on the peaks area ratios of analyte/IS in both the receiver and donor wells of the transwell plate.
The apparent permeability coefficient Papp (cm/s) was calculated using the equation: Papp=(dCr/dt)×Vr/(A×C0) Where dCr/dt is the cumulative concentration of compound in the receiver chamber as a function of time (μM/s); Vr is the solution volume in the receiver chamber (0.05 mL on the apical side; 0.25 mL on the basolateral side); A is the surface area for the transport, i.e. 0.0804 cm^2 for the area of the monolayer; C0 is the initial concentration in the donor chamber (μM).
Compounds are classified Pgp substrates when efflux ratio (Papp BA/Papp AB) is ≥2.

efflux ratio at 60 min, 0.5 μM [2]: 0.77
Structure (SMILES): COc1cnc(C(=O)Nc2cc(F)c(F)c([C@@]3(CF)N=C(N)CCC3(F)F)c2)cn1 [Compound 11, (S)-N-(3-(6-amino-3,3-difluoro-2-(fluoromethyl)-2,3,4,5-tetrahydropyridin-2-yl)-4,5-difluorophenyl)-5-methoxypyrazine-2-carboxamide]
Aβ40 reduction ([1]; rat brain, 10 mg/kg p.o.): 43%
Aβ40 reduction ([1]; rat brain, 30 mg/kg p.o.): 50%
Aβ40 reduction ([1]; rat plasma, 10 mg/kg p.o.): 31%
Aβ40 reduction ([1]; rat plasma, 30 mg/kg p.o.): 37%
